Results as given in ChEMBL document CHEMBL5465560, “Selectivity Literature for EUbOPEN Chemogenomic Library” (2024).
Blank lines part the entries; values can stand above or below the compound they belong to.

How the values were obtained:
[1] = molecular target: T1, Tyrosine-protein kinase ZAP-70 (Homo sapiens) (UniProt P43403); assay: Selectivity interaction (Kinase panel (Reaction Biology)) EUB0001205a ZAP70; settings: at 1 µM
T1 sequence (whole entry): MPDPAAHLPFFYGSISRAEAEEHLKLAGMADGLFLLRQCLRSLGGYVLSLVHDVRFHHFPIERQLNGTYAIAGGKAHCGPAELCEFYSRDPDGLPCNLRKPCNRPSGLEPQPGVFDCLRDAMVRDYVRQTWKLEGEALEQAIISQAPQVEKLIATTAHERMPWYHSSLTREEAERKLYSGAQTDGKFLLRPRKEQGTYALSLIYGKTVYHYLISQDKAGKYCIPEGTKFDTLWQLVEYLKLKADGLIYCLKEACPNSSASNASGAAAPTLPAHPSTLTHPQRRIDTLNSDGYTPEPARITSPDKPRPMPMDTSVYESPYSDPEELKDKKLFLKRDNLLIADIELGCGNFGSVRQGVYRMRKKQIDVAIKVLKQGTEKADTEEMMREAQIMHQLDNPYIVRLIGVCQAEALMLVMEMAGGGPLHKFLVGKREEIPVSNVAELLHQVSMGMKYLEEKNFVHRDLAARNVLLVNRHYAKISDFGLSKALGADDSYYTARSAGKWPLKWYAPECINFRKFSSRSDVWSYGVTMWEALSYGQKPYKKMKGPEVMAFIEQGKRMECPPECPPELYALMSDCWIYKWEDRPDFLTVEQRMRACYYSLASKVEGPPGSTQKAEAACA

[2] = molecular target: Casein kinase I isoform alpha-like (Homo sapiens, UniProt Q8N752); assay: Selectivity interaction (Tracer competition assays (Reaction Biology) ) EUB0001205a CSNK1A1L
[3] = molecular target: T2, Casein kinase I isoform delta (Homo sapiens, UniProt P48730); assay: Selectivity interaction (Western Blot assay (autophosphorylation of CSNK1D in HEK293T-REx cells)) EUB0001205a CSNK1D; assay type: cell-based, T-REx-293
[4] = molecular target: TRAF2 and NCK-interacting protein kinase (Homo sapiens) (UniProt Q9UKE5); assay: Selectivity interaction (Kinase panel (Reaction Biology)) EUB0001205a TNIK; settings: at 1 µM
[5] = molecular target: Casein kinase I isoform alpha (Homo sapiens, UniProt P48729); assay: Selectivity interaction (Kinase panel (Reaction Biology)) EUB0001205a CSNK1A1; settings: at 1 µM
[6] = molecular target: T2, Casein kinase I isoform delta; assay: Selectivity interaction (Kinase panel (Reaction Biology)) EUB0001205a CSNK1D; settings: at 1 µM
[7] = molecular target: T3, Casein kinase I isoform epsilon (Homo sapiens, UniProt P49674); assay: Selectivity interaction (Western Blot assay (autophosphorylation of CSNK1E in HEK293T-REx cells)) EUB0001205a CSNK1E; assay type: cell-based, T-REx-293
[8] = molecular target: T3, Casein kinase I isoform epsilon; assay: Selectivity interaction (Kinase panel (Reaction Biology)) EUB0001205a CSNK1E; settings: at 1 µM
Activin receptor type-1B = Activin receptor type-1B (Homo sapiens, UniProt P36896); assay: Selectivity interaction (NanoBRET assay (HEK293T cells)) EUB0001465a ACVR1B; assay type: cell-based, HEK-293T
TGF-beta receptor type-1 = TGF-beta receptor type-1 (Homo sapiens, UniProt P36897); assay: Selectivity interaction (NanoBRET assay (HEK293T cells)) EUB0001465a TGFBR1; assay type: cell-based, HEK-293T
[9] = molecular target: Bone morphogenetic protein receptor type-1A (Homo sapiens, UniProt P36894); assay: Selectivity interaction (NanoBRET assay (HEK293T cells)) EUB0001465a BMPR1A; assay type: cell-based, HEK-293T
[10] = molecular target: Bone morphogenetic protein receptor type-1B (Homo sapiens, UniProt O00238); assay: Selectivity interaction (NanoBRET assay (HEK293T cells)) EUB0001465a BMPR1B; assay type: cell-based, HEK-293T
[11] = molecular target: T4, Mitogen-activated protein kinase 14 (Homo sapiens, UniProt Q16539); assay: Selectivity interaction (NanoBRET assay (using HEK293T cells)) EUB0001201a MAPK14; assay type: cell-based, HEK-293T
[12] = molecular target: T4, Mitogen-activated protein kinase 14; assay: Selectivity interaction (Tracer competition assays (Reaction Biology)) EUB0001201a MAPK14
[13] = molecular target: T5, Dual specificity tyrosine-phosphorylation-regulated kinase 3 (Homo sapiens, UniProt O43781)
T5 sequence (O43781 whole entry): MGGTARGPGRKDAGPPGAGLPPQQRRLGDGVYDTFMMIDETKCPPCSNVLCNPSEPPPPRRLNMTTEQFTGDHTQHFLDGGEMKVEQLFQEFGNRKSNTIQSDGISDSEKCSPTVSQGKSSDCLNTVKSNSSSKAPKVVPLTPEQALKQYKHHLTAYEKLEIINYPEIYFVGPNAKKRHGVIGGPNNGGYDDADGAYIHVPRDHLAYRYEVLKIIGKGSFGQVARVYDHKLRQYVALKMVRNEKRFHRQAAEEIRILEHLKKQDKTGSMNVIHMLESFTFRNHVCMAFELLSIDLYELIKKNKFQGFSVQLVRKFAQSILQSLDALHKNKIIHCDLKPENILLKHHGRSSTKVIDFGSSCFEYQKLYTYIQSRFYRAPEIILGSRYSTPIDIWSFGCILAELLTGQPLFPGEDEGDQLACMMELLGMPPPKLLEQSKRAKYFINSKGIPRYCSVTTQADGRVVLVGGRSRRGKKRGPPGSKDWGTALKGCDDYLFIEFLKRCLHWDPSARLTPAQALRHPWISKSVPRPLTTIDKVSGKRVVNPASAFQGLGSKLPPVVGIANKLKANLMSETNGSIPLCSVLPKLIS

[14] = molecular target: T6, Dual specificity tyrosine-phosphorylation-regulated kinase 2 (Homo sapiens, UniProt Q92630)
T6 sequence (Q92630 whole entry): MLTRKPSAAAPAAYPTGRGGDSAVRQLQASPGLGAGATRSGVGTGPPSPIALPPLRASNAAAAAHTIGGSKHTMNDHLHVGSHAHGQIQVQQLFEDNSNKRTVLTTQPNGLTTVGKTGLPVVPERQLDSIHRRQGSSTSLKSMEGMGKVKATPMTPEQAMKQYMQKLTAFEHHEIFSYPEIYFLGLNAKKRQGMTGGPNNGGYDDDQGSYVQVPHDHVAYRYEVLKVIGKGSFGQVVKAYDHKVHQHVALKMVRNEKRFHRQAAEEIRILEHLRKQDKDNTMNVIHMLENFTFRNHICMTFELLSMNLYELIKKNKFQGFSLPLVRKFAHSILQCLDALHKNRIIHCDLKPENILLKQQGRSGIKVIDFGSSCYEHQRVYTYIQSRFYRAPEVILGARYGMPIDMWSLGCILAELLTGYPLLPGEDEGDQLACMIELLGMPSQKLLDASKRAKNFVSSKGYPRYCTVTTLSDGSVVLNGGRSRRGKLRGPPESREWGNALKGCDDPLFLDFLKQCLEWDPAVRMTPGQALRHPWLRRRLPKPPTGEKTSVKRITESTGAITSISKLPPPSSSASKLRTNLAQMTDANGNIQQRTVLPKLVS

[15] = molecular target: Dual specificity tyrosine-phosphorylation-regulated kinase 1A (Homo sapiens, UniProt Q13627)
[16] = molecular target: Dual specificity protein kinase CLK4 (Homo sapiens, UniProt Q9HAZ1)
[17] = molecular target: Dual specificity protein kinase CLK2 (Homo sapiens, UniProt P49760)
[18] = molecular target: Dual specificity protein kinase CLK3 (Homo sapiens, UniProt P49761)
SRSF protein kinase 1 [19] = molecular target: T7, SRSF protein kinase 1 (Homo sapiens, UniProt Q96SB4); settings: at 1 µM
[20] = molecular target: Dual specificity tyrosine-phosphorylation-regulated kinase 1B (Homo sapiens, UniProt Q9Y463)
[21] = molecular target: Dual specificity protein kinase CLK1 (Homo sapiens, UniProt P49759)
SRSF protein kinase 1 [22] = molecular target: T7, SRSF protein kinase 1
[23] = molecular target: SRSF protein kinase 2 (Homo sapiens) (UniProt P78362)
[24] = molecular target: TATA box-binding protein-associated factor RNA polymerase I subunit A (Homo sapiens, UniProt Q15573); assay: Selectivity interaction (AlphaScreen) EUB0001074a TAF1A
[25] = molecular target: T8, Bromodomain-containing protein 4 (Homo sapiens, UniProt O60885); assay: Selectivity interaction (BROMOscan) EUB0001074a BRD4
[26] = molecular target: Bromodomain-containing protein 7 (Homo sapiens, UniProt Q9NPI1); assay: Selectivity interaction (BROMOscan) EUB0001074a BRD7
[27] = molecular target: ATPase family AAA domain-containing protein 2B (Homo sapiens, UniProt Q9ULI0); assay: Selectivity interaction (BROMOscan) EUB0001074a ATAD2B
Peregrin = Peregrin (Homo sapiens, UniProt P55201); assay: Selectivity interaction (AlphaScreen) EUB0001074a BRPF1
CREB-binding protein = CREB-binding protein (Homo sapiens, UniProt Q92793); assay: Selectivity interaction (BROMOscan) EUB0001074a CREBBP
[28] = molecular target: T9, Chromatin remodeling regulator CECR2 (Homo sapiens, UniProt Q9BXF3); assay: Selectivity interaction (BROMOscan) EUB0001074a CECR2
[29] = molecular target: SWI/SNF-related matrix-associated actin-dependent regulator of chromatin subfamily A member 2 (Homo sapiens, UniProt P51531); assay: Selectivity interaction (BROMOscan) EUB0001074a SMARCA2
[30] = molecular target: T9, Chromatin remodeling regulator CECR2; assay: Selectivity interaction (AlphaScreen) EUB0001074a CECR2
[31] = molecular target: E3 ubiquitin-protein ligase TRIM33 (Homo sapiens, UniProt Q9UPN9); assay: Selectivity interaction (BROMOscan) EUB0001074a TRIM33
[32] = molecular target: T10, Bromodomain-containing protein 9 (Homo sapiens, UniProt Q9H8M2); assay: Selectivity interaction (BROMOscan) EUB0001074a BRD9
T10 sequence (Q9H8M2 whole entry): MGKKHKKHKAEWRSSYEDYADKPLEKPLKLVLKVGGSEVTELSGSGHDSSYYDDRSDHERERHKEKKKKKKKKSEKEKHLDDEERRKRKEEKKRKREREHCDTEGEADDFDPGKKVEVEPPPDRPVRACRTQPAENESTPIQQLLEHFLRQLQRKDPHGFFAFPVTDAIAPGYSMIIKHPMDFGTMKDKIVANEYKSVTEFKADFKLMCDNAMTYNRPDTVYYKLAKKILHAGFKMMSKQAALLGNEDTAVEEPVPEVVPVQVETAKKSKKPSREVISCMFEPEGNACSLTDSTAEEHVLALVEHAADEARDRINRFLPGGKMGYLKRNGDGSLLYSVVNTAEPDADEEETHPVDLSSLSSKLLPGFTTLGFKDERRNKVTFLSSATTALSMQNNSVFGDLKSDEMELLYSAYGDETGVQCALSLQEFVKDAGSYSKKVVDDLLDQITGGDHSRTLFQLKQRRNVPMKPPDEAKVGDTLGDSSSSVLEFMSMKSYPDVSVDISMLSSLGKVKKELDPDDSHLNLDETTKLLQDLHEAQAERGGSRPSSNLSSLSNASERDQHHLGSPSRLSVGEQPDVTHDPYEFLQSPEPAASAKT

[33] = molecular target: T8, Bromodomain-containing protein 4; assay: Selectivity interaction (AlphaScreen) EUB0001074a BRD4
[34] = molecular target: Nucleosome-remodeling factor subunit BPTF (Homo sapiens, UniProt Q12830); assay: Selectivity interaction (AlphaScreen) EUB0001074a BPTF
[35] = molecular target: T10, Bromodomain-containing protein 9; assay: Selectivity interaction (AlphaScreen) EUB0001074a BRD9
[36] = molecular target: Bromodomain adjacent to zinc finger domain protein 2A (Homo sapiens, UniProt Q9UIF9); assay: Selectivity interaction (BROMOscan) EUB0001074a BAZ2A
[37] = molecular target: ATPase family AAA domain-containing protein 2 (Homo sapiens, UniProt Q6PL18); assay: Selectivity interaction (BROMOscan) EUB0001074a ATAD2
[38] = molecular target: Histone acetyltransferase KAT2B (Homo sapiens, UniProt Q92831); assay: Selectivity interaction (BROMOscan) EUB0001074a KAT2B

T4 sequence (Q16539 whole entry): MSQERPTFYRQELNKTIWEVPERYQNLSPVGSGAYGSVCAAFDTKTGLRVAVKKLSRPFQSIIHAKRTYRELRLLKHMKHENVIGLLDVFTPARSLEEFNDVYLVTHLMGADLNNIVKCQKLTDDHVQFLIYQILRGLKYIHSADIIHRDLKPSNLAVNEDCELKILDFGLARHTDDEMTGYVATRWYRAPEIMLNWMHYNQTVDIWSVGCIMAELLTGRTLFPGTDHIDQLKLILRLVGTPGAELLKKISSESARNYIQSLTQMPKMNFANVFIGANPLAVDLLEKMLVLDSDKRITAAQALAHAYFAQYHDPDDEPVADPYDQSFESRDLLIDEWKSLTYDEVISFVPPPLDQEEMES
T9 sequence (Q9BXF3 whole entry): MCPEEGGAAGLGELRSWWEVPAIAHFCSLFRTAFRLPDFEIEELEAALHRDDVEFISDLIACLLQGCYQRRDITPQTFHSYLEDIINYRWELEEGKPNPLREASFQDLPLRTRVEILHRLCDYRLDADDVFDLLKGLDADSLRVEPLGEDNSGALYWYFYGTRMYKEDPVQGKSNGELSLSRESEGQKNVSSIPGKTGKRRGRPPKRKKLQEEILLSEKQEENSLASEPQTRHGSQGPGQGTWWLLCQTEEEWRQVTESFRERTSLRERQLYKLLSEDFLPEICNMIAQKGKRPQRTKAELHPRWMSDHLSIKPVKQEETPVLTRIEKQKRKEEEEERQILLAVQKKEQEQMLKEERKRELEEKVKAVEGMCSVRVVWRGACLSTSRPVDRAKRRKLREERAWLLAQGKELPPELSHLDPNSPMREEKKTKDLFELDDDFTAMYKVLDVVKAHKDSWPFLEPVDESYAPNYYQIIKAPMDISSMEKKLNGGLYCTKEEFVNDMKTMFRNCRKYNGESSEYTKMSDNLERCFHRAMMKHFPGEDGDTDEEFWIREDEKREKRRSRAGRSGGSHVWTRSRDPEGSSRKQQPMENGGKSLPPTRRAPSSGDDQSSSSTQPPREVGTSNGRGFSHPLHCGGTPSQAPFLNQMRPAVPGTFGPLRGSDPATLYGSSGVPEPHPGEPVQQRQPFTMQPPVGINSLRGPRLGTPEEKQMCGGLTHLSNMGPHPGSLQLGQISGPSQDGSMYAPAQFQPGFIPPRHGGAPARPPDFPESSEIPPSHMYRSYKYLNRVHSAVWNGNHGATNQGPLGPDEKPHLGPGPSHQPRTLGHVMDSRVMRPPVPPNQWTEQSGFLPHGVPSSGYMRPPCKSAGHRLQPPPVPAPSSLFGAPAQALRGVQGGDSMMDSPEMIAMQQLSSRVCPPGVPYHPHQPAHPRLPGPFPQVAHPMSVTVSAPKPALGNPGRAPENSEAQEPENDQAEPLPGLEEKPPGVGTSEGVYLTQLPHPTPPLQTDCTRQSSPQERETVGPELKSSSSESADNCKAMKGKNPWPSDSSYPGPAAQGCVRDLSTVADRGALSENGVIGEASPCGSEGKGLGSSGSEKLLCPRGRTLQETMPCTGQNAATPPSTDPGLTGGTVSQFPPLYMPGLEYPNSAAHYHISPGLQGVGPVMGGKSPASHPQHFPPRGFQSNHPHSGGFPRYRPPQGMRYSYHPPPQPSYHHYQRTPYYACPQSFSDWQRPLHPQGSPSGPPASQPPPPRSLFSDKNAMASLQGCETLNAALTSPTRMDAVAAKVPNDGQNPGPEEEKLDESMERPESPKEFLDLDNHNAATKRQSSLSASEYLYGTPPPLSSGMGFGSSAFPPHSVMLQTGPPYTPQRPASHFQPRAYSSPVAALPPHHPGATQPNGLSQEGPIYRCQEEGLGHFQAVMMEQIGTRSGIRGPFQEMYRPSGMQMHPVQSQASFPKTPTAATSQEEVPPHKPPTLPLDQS
T7 sequence (Q96SB4 whole entry): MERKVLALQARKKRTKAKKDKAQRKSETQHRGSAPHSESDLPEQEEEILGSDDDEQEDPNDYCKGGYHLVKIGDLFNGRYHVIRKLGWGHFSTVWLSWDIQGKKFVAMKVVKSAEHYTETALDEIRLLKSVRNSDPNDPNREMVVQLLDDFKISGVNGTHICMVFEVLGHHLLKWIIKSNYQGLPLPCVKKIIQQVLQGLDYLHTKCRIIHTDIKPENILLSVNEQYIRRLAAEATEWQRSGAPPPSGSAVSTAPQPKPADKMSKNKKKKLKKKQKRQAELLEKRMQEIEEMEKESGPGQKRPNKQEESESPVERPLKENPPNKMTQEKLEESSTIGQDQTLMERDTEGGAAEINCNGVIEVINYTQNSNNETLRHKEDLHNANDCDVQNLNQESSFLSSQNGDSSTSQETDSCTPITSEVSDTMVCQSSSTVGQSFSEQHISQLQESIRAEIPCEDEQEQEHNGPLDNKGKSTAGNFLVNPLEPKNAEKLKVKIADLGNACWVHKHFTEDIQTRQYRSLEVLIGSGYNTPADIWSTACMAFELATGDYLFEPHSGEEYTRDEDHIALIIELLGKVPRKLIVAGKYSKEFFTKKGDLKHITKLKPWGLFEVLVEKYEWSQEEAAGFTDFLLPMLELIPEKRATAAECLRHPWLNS
Chain of SRSF protein kinase 2 (Homo sapiens) (P78362 whole entry, looked up): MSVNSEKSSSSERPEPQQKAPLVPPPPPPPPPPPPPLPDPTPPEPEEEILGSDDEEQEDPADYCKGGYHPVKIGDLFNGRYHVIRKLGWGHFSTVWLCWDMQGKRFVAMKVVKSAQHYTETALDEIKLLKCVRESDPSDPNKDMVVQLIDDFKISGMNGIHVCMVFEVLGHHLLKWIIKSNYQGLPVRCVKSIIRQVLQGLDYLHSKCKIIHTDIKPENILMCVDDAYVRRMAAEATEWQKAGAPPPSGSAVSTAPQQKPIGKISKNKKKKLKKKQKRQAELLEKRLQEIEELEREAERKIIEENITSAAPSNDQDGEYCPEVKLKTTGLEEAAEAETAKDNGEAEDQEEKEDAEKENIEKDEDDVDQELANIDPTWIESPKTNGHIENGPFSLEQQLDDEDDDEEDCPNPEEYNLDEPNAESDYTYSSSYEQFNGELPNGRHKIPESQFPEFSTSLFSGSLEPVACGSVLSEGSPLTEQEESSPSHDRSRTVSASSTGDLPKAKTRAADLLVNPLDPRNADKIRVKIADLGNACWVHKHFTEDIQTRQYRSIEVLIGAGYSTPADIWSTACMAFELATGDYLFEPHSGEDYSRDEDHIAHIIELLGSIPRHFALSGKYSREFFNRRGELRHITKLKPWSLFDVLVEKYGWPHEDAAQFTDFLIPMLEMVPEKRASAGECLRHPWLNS
Chain of ATPase family AAA domain-containing protein 2 (Q6PL18 whole entry, the tested form may be a part): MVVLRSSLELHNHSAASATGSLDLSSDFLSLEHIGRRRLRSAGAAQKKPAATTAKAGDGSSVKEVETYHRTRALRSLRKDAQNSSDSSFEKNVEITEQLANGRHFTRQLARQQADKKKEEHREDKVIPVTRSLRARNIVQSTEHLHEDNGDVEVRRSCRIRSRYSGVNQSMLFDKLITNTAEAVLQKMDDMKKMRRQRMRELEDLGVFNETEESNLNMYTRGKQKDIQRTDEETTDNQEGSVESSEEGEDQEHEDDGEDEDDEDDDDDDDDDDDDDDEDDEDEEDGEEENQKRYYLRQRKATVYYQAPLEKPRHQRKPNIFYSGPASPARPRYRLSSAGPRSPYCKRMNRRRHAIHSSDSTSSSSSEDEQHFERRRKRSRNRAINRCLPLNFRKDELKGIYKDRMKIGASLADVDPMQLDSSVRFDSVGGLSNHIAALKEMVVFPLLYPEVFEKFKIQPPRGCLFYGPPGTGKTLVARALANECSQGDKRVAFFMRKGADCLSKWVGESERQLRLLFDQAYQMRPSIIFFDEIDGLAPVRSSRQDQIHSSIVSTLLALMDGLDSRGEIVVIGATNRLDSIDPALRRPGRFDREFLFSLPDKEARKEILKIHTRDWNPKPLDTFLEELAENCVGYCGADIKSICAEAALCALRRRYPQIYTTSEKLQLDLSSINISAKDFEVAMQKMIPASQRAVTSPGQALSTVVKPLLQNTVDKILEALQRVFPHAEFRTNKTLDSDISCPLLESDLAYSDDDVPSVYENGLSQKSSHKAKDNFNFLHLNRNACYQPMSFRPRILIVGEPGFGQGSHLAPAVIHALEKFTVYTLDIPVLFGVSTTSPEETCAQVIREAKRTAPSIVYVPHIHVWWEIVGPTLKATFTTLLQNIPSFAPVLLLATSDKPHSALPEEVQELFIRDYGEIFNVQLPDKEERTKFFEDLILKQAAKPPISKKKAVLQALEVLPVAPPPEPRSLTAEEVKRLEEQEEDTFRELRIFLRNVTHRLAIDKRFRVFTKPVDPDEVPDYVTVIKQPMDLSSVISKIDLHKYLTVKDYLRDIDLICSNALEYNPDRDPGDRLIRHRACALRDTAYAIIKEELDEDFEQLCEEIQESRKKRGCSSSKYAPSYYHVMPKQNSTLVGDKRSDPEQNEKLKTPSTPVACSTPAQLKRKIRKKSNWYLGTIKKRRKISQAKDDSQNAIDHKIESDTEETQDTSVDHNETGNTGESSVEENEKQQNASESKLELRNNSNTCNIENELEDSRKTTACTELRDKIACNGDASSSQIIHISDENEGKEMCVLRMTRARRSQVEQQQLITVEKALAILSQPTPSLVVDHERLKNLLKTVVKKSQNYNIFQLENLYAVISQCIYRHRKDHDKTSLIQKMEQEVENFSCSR
Chain of Dual specificity protein kinase CLK4 (Q9HAZ1 whole entry): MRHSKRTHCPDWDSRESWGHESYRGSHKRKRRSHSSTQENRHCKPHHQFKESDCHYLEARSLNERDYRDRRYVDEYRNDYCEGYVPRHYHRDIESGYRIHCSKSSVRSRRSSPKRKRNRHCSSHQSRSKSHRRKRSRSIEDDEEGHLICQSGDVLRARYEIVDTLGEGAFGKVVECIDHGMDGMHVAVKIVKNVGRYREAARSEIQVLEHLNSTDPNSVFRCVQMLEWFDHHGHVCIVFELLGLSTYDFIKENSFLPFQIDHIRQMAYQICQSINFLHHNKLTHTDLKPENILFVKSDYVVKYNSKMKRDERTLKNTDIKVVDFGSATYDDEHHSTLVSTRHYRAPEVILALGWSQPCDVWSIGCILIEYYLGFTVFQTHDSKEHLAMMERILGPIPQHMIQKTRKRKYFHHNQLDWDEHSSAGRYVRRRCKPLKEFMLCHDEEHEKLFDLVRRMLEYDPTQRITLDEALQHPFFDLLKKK

% of inhibition [1]: 71%
IC50 [2]: 0.52 µM
IC50 [3]: 0.5 µM
% of inhibition [4]: 43%
% of inhibition [5]: 6%
% of inhibition [6]: -6%
IC50 [7]: 12.4 µM
% of inhibition [8]: 0%
Compound: CN1CCC(F)(Cn2cnc(-c3ccc(F)cn3)c2-c2ccnc3[nH]ccc23)CC1

IC50 (Activin receptor type-1B): > 0.01 µM
IC50 (TGF-beta receptor type-1): > 0.01 µM
IC50 [9]: > 0.01 µM
IC50 [10]: > 0.01 µM
Compound: COc1cc(-c2cncc(-c3ccc(N4CCN(C(C)C)CC4)cc3)c2C)cc(F)c1C(=O)N1CCCC1

IC50 [11]: 9.9 µM
IC50 [12]: > 3 µM
Compound: CCc1ccc(-c2ncn(CC3(F)CCN(C)CC3)c2-c2ccnc3[nH]ccc23)nc1

IC50 [13]: > 10 µM
IC50 [14]: > 10 µM
IC50 [15]: > 10 µM
IC50 [16]: > 10 µM
IC50 [17]: > 10 µM
IC50 [18]: > 10 µM
% of control (SRSF protein kinase 1 [19]): 8.76%
IC50 [20]: > 10 µM
IC50 [21]: > 10 µM
dTM (SRSF protein kinase 1 [22]): 9.1 K
dTM [23]: 4 K
Compound: CN(c1ncccc1CNc1ccnc(-c2nc3c(F)c(Cl)ccc3[nH]2)n1)S(C)(=O)=O

IC50 [24]: > 200 µM
IC50 [25]: > 100 µM
IC50 [26]: > 100 µM
IC50 [27]: > 100 µM
IC50 (Peregrin): > 200 µM
IC50 (CREB-binding protein): > 100 µM
IC50 [28]: > 100 µM
IC50 [29]: > 77 µM
IC50 [30]: > 200 µM
IC50 [31]: > 100 µM
IC50 [32]: > 100 µM
IC50 [33]: > 200 µM
IC50 [34]: > 200 µM
IC50 [35]: > 200 µM
IC50 [36]: > 100 µM
IC50 [37]: > 100 µM
IC50 [38]: > 100 µM
Compound: CCc1cc2cc(NS(=O)(=O)c3ccc(C#N)cc3)ccc2n(CC)c1=O
